Measurements taken from patent US5760036A, “Aminediol protease inhibitors” (E. R. Squibb & Sons, Inc., priority 1995, dated 1998).
Counter-ions that a name gives are not always drawn. Like-named read-outs stand apart in the source and are kept apart here.

Legend:
[1] = target: T1, HIV protease (Human immunodeficiency virus type 1 group M subtype B, UniProt P04585); test: HIV Protease Assay; format: biochemical
T1 construct: and purified protease
How it was run: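 At a single final concentration of 10 μM (4% DMSO), inhibitors were added to a 30-minute, 37° C reaction of purified enzyme with 450 μM H2N-Val-Ser-Gln-Asn-(β-naphthyl-alanine)-Pro-Val-Ile-OH at pH 5.5 (sodium acetate, BSA). Hydrolysis was quantified by reverse-phase HPLC with 220 nm detection after acid quench.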

[2] = test system: RF strain of HIV (CEM-SS cells); test: Cell Culture Anti-HIV Activity (cell viability, formazan); format: cell-based; conditions: Human immunodeficiency virus 1, CEM-SS, 144 h, CEM-SS cells, RF strain of HIV, multiplicity of infection 0.04, 6 days at 37° C., 450 nm; read-out: HIV (CEM Cells) IC50
How it was run: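 Half-log compound dilutions added to CEM-SS cells (5000/well) carrying HIV RF (MOI 0.04), 6 days, 37° C. Cell protection measured as formazan from tetrazolium, A450. IC50: drug level restoring infected-cell formazan to 50% of the uninfected untreated control.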

[3] = pH 5.5, 10 μM inhibitor, 4% DMSO, 450 μM substrate, pH 5.5, 30 minutes at 37° C., RP-HPLC, read-out: HIV Protease % Inhibition at 10 μM
[4] = pH 5.5, read-out: HIV Protease % Inhibition at 10 μM

| inhibition at 10 µM [1, 3] [%] | inhibition at 10 µM [1, 4] [%] | Compound | IC50 [2] [µM] |
| --- | --- | --- | --- |
| 99 |  | CC(C)[C@H](NC(=O)Cc1nc2ccccc2[nH]1)C(=O)N[C@@H](Cc1ccccc1)[C@H](O)CNC[C@@H](O)[C@H](Cc1ccccc1)NC(=O)OC(C)(C)C (relative stereo) [Compound 105, S-[1R*,2S*(2S*,3R*)]-N-[3-[[3-[[(1,1-Dimethylethoxy)carbonyl]amino]-2-hydroxy-4-phenylbutyl]amino]-2-hydroxy-1-(phenylmethyl)-propyl]-N^2-(1H-benzimidazol-2-ylacetyl)-L-valinamide] | 1.6 |
| 100 |  | CC(C)[C@H](NC(=O)OCc1ccccn1)C(=O)N[C@@H](Cc1ccccc1)[C@H](O)CNC[C@@H](O)[C@H](Cc1ccccc1)NC(=O)OC(C)(C)C [Compound 70, [S-[1R*,2S*(2S*,3R*)]]-N-[3-[[3-[[(1,1-Dimethylethoxy)carbonyl]amino]-2-hydroxy-4-phenylbutyl]amino]-2-hydroxy-1-(phenylmethyl)-propyl]-N^2-(2-pyridinylmethoxy)carbonyl]-L-valinamide] | 0.5 |
| 98 |  | CNC(=O)N[C@H](C(=O)N[C@@H](Cc1ccccc1)[C@H](O)CNC[C@@H](O)[C@H](Cc1ccccc1)NC(=O)OC(C)(C)C)C(C)(C)C (relative stereo) [Compound 263, [1R*,2S*(2S*,3R*)]-N-[3-[[3-[[(1,1-Dimethylethoxy)carbonyl]amino]-2-hydroxy-4-phenylbutyl]amino]-2-hydroxy-1-(phenylmethyl)propyl]-N^2-[(methylamino)carbonyl]-3-methyl-L-valinamide] | 0.34 |
| 95 |  | C[C@@H](O)C(C)(C)OC(=O)N[C@@H](Cc1ccccc1)[C@H](O)CNC[C@@H](O)[C@H](Cc1ccccc1)NC(=O)OC(C)(C)C [Compound 275, [1S-[1R*,2S*),(S*)]-[Iminobis [2-hydroxy-1-(phenylmethyl)-3,1-propanediyl]]biscarbamic acid, 1,1-dimethylethyl 2-hydroxy-1,1-dimethylpropyl ester] | 0.45 |
| 98 |  | COCCOc1ccc(C[C@H](NC(=O)OC(C)(C)C)[C@H](O)CNC[C@@H](O)[C@H](Cc2ccccc2)NC(=O)OC(C)(C)C)cc1 [Compound 224, [1S-[1R*,2S*(2S*,3R*)]]-[3-[[3-[[(1,1-Dimethylethoxy)carbonyl]amino]-2-hydroxy-4-[4-(2-methoxyethoxy)phenyl]butyl]amino]-2-hydroxy-1-(phenylmethyl)propyl]carbamic acid, 1,1-dimethylethyl ester] | 0.04 |
| 100 |  | CN(C)C(=O)N[C@H](C(=O)N[C@@H](Cc1ccccc1)[C@H](O)CNC[C@@H](O)[C@H](Cc1ccccc1)NC(=O)OC(C)(C)C)C(C)(C)C (relative stereo) [Compound 305, [1R*,2S* (2S*,3R*)]-N-[3-[[3-[[(1,1Dimethylethoxy)carbonyl]amino]-2-hydroxy-4-phenylbutyl]amino]-2-hydroxy-1-(phenylmethyl)propyl]-N^2-[(dimethylamino)carbonyl)-3-methyl-L-valinamide] | 0.2 |
| 99 |  | CC(C)(C)OC(=O)N[C@@H](Cc1ccccc1)[C@H](O)CNC[C@@H](O)[C@H](Cc1ccccc1)NC(=O)[C@H](CC(N)=O)NC(=O)OCc1ccccc1 [Compound 53, [1S-[1R*,2S*(2S*3R*)]]-N-[3-[[3[[(1,1-Dimethylethoxy)-carbonyl]amino]-2-hydroxy-4-phenylbutyl]amino]-2-hydroxy-1-(phenylmethyl)propyl]-N^2 [(phenylmethoxy)-carbonyl]-L-aspartamide] | 0.54 |
|  | 94 | CC(C)(C)OC(=O)N[C@@H](Cc1ccccc1)[C@H](O)CNC[C@@H](O)[C@H](Cc1ccccc1)NC(=O)C(C)(C)O [Compound 278, [1S-[1R*,2S*(2S*,3R*)]]-[2-Hydroxy-3-[[2-hydroxy-3-[(2-hydroxy-2-methyl-1-oxoproply)amino]-4-phenylbutyl]amino]-1-(phenylmethyl)propyl]carbamic acid, 1,1-dimethylethyl ester] | 0.84 |
| 100 |  | COC(=O)N[C@H](C(=O)N[C@@H](Cc1ccccc1)[C@H](O)CNC[C@@H](O)[C@H](Cc1ccccc1)NC(=O)OC(C)(C)C)C(C)(C)C (relative stereo) [Compound 246, [1R*,2S*(2S*,3R*)]-N-[3-[[3-[[(1,1-Dimethylethoxy)carbonyl]amino]-2-hydroxy-4-phenylbutyl]amino]-2-hydroxy-1-(phenylmethyl)propyl]-N^2-(2-methoxycarbonyl)-3-methyl-L-valinamide] | 0.04 |
|  | 99 | CC(C)(C)OC(=O)N[C@@H](Cc1ccccc1)[C@H](O)CNC[C@@H](O)[C@H](Cc1ccc(OCCn2ccnc2)cc1)NC(=O)OC(C)(C)C [Compound 290, [1S-[1R*,2S*(2S*,3R*)]]-[3-[[3-[[(1,1-Dimethylethoxy)carbonyl]amino]-2-hydroxy-4-[4-[2-(1H-imidazol-1-yl)-ethoxy]phenyl]butyl]amino]-2-hydroxy-1-(phenylmethyl)-propyl]carbamic acid, 1,1-dimethylethyl ester] | 0.06 |
| 90 |  | CC(C)(C)OC(=O)N[C@@H](Cc1ccccc1)[C@H](O)CNC[C@@H](O)[C@H](Cc1c[nH]c2ccccc12)NC(=O)OCc1ccccc1 [Compound 22, [1S-[1R*,2S*(2S*,3R*)]]-[3-[[3-[[(1,1-Dimethylethoxy)carbonyl]amino]-2-hydroxy-4-ehenylbutyl]amino]-2-hydroxy-1-[(1H-indol-3-yl)methyl]propyl]carbamic acid, phenylmethyl ester] | > 1.8 |
| 71 |  | CC(C)[C@H](NC(=O)OCc1ccccc1)C(=O)N[C@@H](Cc1ccccc1)[C@H](O)CNC[C@H](O)[C@H](Cc1ccccc1)NC(=O)OC(C)(C)C [Compound 125, [S-[1R*,2S*(2R*,3R*)]-N-[3-[[3-[[(1,1-Dimethylethoxy)carbonyl]amino]-2-hydroxy-4-phenylbutyl]amino]-2-hydroxy-1-(phenylmethyl)propyl]-N^2 [(phenylmethoxy)carbonyl]-L-valinamide] | > 1.5 |
| 99 |  | CC(C)(C)OC(=O)N[C@@H](Cc1ccccc1)[C@H](O)CNC[C@@H](O)[C@H](Cc1ccccc1)NC(=O)C(NC(=O)OCc1ccccc1)C(C)(C)O (single isomer, unassigned; isomer b) [Compound 302, [1S-[1R*,2S*(2S*,3R*)]]-[1-[[[3-[[(1,1-Dimethylethoxy)carbonyl]amino]-2-hydroxy-4-phenylbutyl]amino]-2-hydroxy-1-(phenylmethyl)propyl]amino]carbonyl]-2-hydroxy-2-methylpropyl]carbamic acid, phenylmethyl ester, isomer B] | 0.25 |
| 99 |  | CC(C)(C)OC(=O)N[C@@H](Cc1ccccc1)[C@H](O)CNC[C@@H](O)[C@H](Cc1ccccc1)NC(=O)[C@@H](NC(=O)OCCOCc1ccccc1)C(C)(C)C [Compound 351, [S-[1R*,2S*(2S*,3R*)]]-[2,2-Dimethyl-1-[[[3-[[3-[[(1,1-dimethyl-ethoxy)carbonyl]amino]-2hydroxy-4-phenylbutyl]amino-2-hydroxy-1-(phenylmethyll)-propyl]amino]carbonyl]propyl]carbamic acid, 2-(phenylmethoxy)ethyl ester] | 0.08 |
| 100 |  | CC(C)[C@H](NC(=O)OCc1ncc[nH]1)C(=O)N[C@@H](Cc1ccccc1)[C@H](O)CNC[C@@H](O)[C@H](Cc1ccccc1)NC(=O)OC(C)(C)C (relative stereo) [Compound 249, [1R*,2S*(2S*,3R*)]-N-[3-[[3-[[(1,1-Dimethylethoxy)carbonyl]amino]-2-hydroxy-4-phenylbutyl]amino]-2-hydroxy-1-(phenylmethyl)propyl]-N^2-[(1H-imidazol-2-ylmethoxy)carbonyl]-L-valinamide, acetate (2:3) salt] | 0.84 |
| 77 |  | CC(C)[C@H](NC(=O)OCc1ccccc1)C(=O)N[C@@H](Cc1ccccc1)[C@H](O)CNC[C@@H](O)[C@H](Cc1ccccc1)N(C)C(=O)OC(C)(C)C [Compound 141, [S-[1R*,2S*(2S*,3R*)]-N-[3-[[3-[[(1,1-Dimethylethoxy)carbonyl]methylamino]-2-hydroxy-4-phenylbutyl]amino]-2-hydroxy-1-(phenylmethyl)propyl]-N^2-[(phenylmethoxy)-carbonyl]-L-valinamide]] | > 2.3 |
| 51 |  | CC(C)(C)OC(=O)N[C@@H](Cc1ccccc1)[C@H](O)CNC[C@@H](O)[C@H](Cc1ccccc1)NC(=O)COc1ccccc1 (relative stereo) [Compound 72, 1S-[1R*,2S*(2S*,3R*)]]-[2-Hydroxy-3-[[2-hydroxy-3-[(phenoxyacetyl)amino]-4-phenylbutyl]amino]-1-(phenylmethyl)propyl]carbamic acid, 1,1-dimethylethylester] | > 3.2 |
| 20 |  | CC(C)[C@H](NC(=O)OC(C)(C)C)C(=O)N[C@@H](Cc1ccccc1)[C@H](O)CNC[C@@H](O)[C@H](Cc1ccccc1)NC(=O)[C@@H](NC(=O)OC(C)(C)C)C(C)C [Compound 34, [S-(1R*,2S*)]-N,N'-[Iminobis[2-hydroxy-1-(phenylmethyl)-3,1-propanediyl]]bis[N^2-[(1,1-dimethylethoxy)carbonyl]-L-valinamide]] | > 9 |
